Assays:
[1] = system: anti-FGF monoclonal antibody; assay: FGF binding assay: inhibition of radiolabeled FGF binding to biotinylated anti-FGF antibody; set-up: species or system mouse
Description: FIG. 1 is a graph depicting the ability of compounds PPI-432, PPI-652 and PPI-654 to inhibit the binding of radiolabeled FGF to an anti-FGF antibody.
The activities of the libraries were tested using an FGF binding assay. […] Since Libraries I and II are highly diverse, the active non-peptide compounds should have a spectrum of potencies which cumulatively yield the average potency seen in the library.
The eluted non-peptide compounds were brought to dryness under vacuum. Recovered non-peptide compounds were dissolved in 50 μl water and tested for their ability to block the interaction of bFGF with the target protein. (Assuming 100% recovery of non-peptide compounds and 100% binding to bivalent antibody, the amount of recovered non-peptide compounds was calculated to be 200 ng).
Several of the non-peptide compounds selected from the combinatorial library were made synthetically and compared to the starting peptide (PPI-432) for their ability to bind to the target protein. The compounds were synthesized with an amino-terminal acetyl group and a carboxy-terminal amide. The potency of two non-peptide compounds (PPI-652 and PPI-654, shown in Table 2), containing modified amino acids at positions 5 and 7, were compared to the starting peptide PPI-432 in their ability to inhibit radiolabeled FGF binding to biotinylated anti-FGF antibody. […]

[2] = system: monoclonal antibody to bFGF; assay: Competitive binding: blocking of phage binding to the anti-bFGF antibody; set-up: species or system mouse; settings: phage containing the sequence P-R-G-H-W-K-Q (SEQ ID NO: 9); competitive binding experiments
Description: A monoclonal antibody raised against human basic FGF (bFGF) was used as a biopanning target using a 7-mer peptide library in a bacteriophage M13 vector. To prepare the biopanning plates, four wells of an Immulon4 microtiter plate (Dynatech) were coated with stepavidin (1 μg/well) in 100 mM NaHCO3, pH 9.5, for 2 hours at room temperature or overnight at 4° C. The strepavidin-coated wells were washed three times with phosphate-buffered saline (PBS). To each well containing strepavidin, biotinylated rat anti mouse antibody K light chain (PharMingen) was added, at 1 μg/well, in PBS for 30 minutes to 1 hour at room temperature. The wells were then washed again with PBS three times. Non-specific binding sites were blocked with 300 μl/well PBS, 1% dry milk for 1 hour at room temperature. The wells were then washed with PBS, 0.1% dry milk three times, loaded with 50 μl/well PBS, 0.1% dry milk and stored at 4° C. […]
After the 2 hour room temperature incubation of the phage with the antibody, the PBS, 0.1% milk buffer was removed from the wells of the strepavidin/biotinylated α-mouse complex plates and the corresponding 100 μl of each tube containing the antibody/phage mixture was added to each of the four wells. […] The phage eluant was titered and the fractional yield determined. […]

blocking of phage binding to the antibody [2]	Substance	blocking of the binding of bFGF to the antibody [1]
blocked	G-A-F-P-P-G-H-F-K-D-P-D-R-L (GAFPPGHFKDPDRL) [PPI-416]	blocked
	P-P-G-H-F-K-D (PPGHFKD) [PPI-432]	blocked

— patent publication US20080032896A1, “Methods for identifying compounds that bind to a target” (priority 1995, published 2008)
